# Test results reported in article PMC4077706, “Lifting the Mask: Identification of New Small Molecule Inhibitors of Uropathogenic Escherichia coli Group 2 Capsule Biogenesis” (PLoS ONE, 2014).
# Assays:
# Conditions in all cases: 10 µM
# [1] = target: T1, GABAB1A (Homo sapiens, UniProt Q9UBS5); assay: Radioligand binding 228610
# T1 construct: host or cells: CHO cells
# [2] = test system: GABAA, Muscimol, Central; type: binding, rat
# [3] = target: Calcium Channel L-Type, Dihydropyridine (Rattus norvegicus, UniProt P22002); type: binding
# [4] = test system: Rolipram; assay: Radioligand binding 270000; parameters: species or system rat
# Chain of Calcium Channel L-Type, Dihydropyridine (P22002 whole entry): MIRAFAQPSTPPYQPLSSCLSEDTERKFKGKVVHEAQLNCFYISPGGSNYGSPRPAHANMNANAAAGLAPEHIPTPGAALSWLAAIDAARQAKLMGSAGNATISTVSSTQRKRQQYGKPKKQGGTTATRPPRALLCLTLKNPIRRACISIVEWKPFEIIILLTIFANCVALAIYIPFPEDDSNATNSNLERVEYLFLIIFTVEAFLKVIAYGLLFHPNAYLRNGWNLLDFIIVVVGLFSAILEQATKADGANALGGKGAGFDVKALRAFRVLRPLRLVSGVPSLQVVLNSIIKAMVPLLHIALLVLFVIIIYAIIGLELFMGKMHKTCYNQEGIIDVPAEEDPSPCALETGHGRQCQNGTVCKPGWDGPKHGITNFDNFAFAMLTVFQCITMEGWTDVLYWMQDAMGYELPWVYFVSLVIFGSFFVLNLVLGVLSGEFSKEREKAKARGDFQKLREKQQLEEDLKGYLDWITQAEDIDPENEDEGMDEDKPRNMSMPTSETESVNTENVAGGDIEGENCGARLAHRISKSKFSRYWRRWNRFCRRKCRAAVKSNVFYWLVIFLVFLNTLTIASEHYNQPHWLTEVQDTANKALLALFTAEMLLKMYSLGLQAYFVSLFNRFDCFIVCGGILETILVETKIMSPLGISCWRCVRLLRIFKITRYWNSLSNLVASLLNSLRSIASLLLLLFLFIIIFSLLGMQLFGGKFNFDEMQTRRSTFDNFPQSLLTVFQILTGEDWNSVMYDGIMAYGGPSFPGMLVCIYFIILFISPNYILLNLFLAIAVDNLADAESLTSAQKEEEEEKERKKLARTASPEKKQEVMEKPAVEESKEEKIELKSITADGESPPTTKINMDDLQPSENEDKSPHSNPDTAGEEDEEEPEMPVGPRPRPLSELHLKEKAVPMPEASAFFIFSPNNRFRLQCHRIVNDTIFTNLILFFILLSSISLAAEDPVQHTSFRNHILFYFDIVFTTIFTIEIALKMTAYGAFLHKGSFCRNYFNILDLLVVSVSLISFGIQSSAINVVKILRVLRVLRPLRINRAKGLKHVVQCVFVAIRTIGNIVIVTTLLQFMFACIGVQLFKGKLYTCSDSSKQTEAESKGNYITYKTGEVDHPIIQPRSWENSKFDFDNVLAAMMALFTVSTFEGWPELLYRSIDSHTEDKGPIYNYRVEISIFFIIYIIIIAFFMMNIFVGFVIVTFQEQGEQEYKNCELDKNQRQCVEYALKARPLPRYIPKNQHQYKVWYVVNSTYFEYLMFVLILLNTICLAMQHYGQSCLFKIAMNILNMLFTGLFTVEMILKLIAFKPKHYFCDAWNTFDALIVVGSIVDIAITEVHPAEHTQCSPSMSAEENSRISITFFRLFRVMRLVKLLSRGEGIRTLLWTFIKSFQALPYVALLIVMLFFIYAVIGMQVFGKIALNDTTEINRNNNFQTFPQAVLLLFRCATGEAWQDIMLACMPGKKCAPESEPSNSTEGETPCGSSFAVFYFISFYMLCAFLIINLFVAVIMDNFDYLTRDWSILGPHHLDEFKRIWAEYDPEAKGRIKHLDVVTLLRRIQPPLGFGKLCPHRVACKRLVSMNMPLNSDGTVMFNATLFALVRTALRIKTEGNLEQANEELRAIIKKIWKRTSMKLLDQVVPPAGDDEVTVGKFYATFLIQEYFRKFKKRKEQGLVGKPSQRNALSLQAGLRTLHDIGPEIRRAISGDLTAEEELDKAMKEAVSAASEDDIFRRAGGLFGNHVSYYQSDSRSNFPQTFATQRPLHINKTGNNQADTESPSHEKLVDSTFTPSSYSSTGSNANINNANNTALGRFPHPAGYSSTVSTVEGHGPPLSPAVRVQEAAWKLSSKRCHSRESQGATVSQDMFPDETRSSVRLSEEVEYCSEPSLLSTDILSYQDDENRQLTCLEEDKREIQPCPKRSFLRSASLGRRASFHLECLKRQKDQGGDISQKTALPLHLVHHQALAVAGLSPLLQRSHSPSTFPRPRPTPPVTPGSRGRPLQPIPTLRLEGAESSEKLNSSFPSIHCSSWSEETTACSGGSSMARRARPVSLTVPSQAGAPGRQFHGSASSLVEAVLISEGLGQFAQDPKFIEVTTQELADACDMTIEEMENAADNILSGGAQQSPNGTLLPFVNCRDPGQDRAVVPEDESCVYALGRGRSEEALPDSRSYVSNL
# T1 sequence (Q9UBS5 15-961): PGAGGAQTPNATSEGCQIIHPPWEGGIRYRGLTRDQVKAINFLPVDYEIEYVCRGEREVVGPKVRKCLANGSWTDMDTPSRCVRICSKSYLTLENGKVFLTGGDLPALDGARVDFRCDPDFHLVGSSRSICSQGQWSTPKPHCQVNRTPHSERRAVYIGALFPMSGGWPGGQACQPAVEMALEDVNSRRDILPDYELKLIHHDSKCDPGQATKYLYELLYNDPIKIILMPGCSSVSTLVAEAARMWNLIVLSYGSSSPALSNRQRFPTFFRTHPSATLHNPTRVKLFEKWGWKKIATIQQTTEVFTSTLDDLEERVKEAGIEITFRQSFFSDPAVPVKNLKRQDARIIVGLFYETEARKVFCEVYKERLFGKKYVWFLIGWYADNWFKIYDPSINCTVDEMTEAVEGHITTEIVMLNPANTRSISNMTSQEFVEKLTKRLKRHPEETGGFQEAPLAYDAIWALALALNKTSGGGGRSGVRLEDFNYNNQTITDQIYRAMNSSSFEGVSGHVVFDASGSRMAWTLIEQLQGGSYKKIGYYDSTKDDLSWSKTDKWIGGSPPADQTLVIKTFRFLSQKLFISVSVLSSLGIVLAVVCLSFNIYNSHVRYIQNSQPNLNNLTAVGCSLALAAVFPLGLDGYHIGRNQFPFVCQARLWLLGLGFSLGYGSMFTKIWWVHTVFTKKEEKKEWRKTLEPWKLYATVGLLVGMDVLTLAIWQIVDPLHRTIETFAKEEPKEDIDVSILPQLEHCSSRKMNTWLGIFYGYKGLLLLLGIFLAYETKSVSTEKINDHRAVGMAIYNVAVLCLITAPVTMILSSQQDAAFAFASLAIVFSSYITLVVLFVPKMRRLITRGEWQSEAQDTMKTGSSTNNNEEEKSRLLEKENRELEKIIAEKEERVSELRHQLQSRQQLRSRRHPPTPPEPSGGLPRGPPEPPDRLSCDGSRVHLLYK
smiles,measurement,setting,value
CCOc1ccc(-c2cc(NC(=O)c3c(F)cccc3F)c(C(=O)O)s2)cc1 [DU011],% Inh.,[1],7%
same,% Inh.,[2],4%
same,% Inh.,[3],18%
same,% Inh.,[4],3%
